Structures can show the parent of a compound that is named as a salt.

The data set is described as follows: Solubility studies of nalmefene HCl monohydrate in aqueous HCl (visual dissolution at 80° C.). The format is physicochemical. The method, then:
A series of nalmefene HCl monohydrate solubility experiments were carried out in aqueous HCl. Nalmefene HCl monohydrate (520 mg) was charged to a 4 mL capped vial, followed by solvent (0-6 M HCl, 780 μL, 1.5 volumes) and heated to 80° C. on a pie-block. Increasing amounts of solvent were added periodically until dissolution was achieved (determined visually).
Seven dissolution experiments were carried out.

`C=C1CC[C@@]2(O)[C@H]3Cc4ccc(O)c5c4[C@@]2(CCN3CC2CC2)[C@H]1O5` [Nalmefene HCl, 17-(cyclopropylmethyl)-4,5α-epoxy-6-methylenemorphinan-3,14-diol]: the “Volumes needed to dissolve nalmefene HCl at 80° C.” value runs as follows: (Sample No. 0, HCl molarity 0 (water), 520 mg) “Fewer than 1.5 Volumes”; (Sample No. 1, HCl molarity 1, 520 mg) 1.5 Volumes; (Sample No. 2, HCl molarity 2, 520 mg) 2.5 Volumes; (Sample No. 3, HCl molarity 3, 520 mg) 6.5 Volumes; (Sample No. 4, HCl molarity 4, 520 mg) 6.5 Volumes; (Sample No. 5, HCl molarity 5, 520 mg) 4.0 Volumes. For the same compound, the “Volumes needed to dissolve nalmefene HCl at 80° C.” value (Sample No. 6, HCl molarity 6, 520 mg) amounted to 3.5 Volumes. In addition, the “HCl molarity at which solubility is at a minimum” value (aqueous HCl 0-6 M) was 3-4 M HCl.

The values are drawn from patent US12668596B2, “Process for crystallizing nalmefene hydrochloride” (RHODES TECHNOLOGIES, priority 2021, dated 2026).
